# Legend:
# Format in all cases: cell-based, human
# MOLM-13 (MLL-AF9) cells = test: Combination proliferation assay with Compound A2 (CellTiter-Glo, Chou-Talalay CI); settings: for Combination effect with Compound A2 (Table 4): MOLM-13 (MLL-AF9), 7 Day Cotreatment Model; for Combination effect with Compound A2: MOLM-13, 7 Day Cotreatment (Example 1); for Combination effect with Compound A2 (Table 2): MOLM-13 MLL-AF9
# Experimental: (§1) The acute myelogenous leukemia cell lines MV4-11 (MLL-AF4) and MOLM-13 (MLL-AF9) were obtained from American Type Culture Collection (ATCC; Rockville, Md.) and Deutsche Sammlung von Mikroorganismen and Zellkulturen (DSMZ; Braunschweig, Germany) respectively.
# (§2) Studies were performed using MLL-rearranged cell lines in vitro to evaluate the anti-proliferative effect of a combination of two agents together on cell growth. Initial proliferation studies were performed to determine the IC50 of a given compound in each cell line. The cell counts were measured by ATP quantitation using the Promega Cell Titer Glo kit and luminescence values corresponded to the amount of ATP in a given well.
# (§3) Compounds were evaluated for synergy in the co-treatment phase by testing the compounds in a concentration range which was bracketed around their IC50 values. The compounds were plated to a 96 well plate in a matrix format (FIG. 3) which includes increasing concentrations of each drug in the combination in a constant ratio, in addition to the effect of each compound alone in the study. Cells were seeded and grown in the log-linear phase for 3 or 7 days in the co-treatment phase. Minimum inhibition (DMSO alone) controls were used in each plate to calculate fraction affected (Fa) of a test well. DMSO concentration was kept at 0.1% v/v.
# (§4) The drug combination analysis was performed utilizing the Chou-Talalay method Synergy was determined using the software package Calcusyn by Biosoft. The combination index (CI) is a quantitative term used to describe the level of synergy or antagonism in a given test system. A combination index less than one indicates synergy, and a CI greater than one indicates antagonism. Further, strong synergism is achieved when the CI value falls below 0.3.
# (§5) The HP-D300 digital dispenser (Tecan) was used to dispense compounds in a combinatorial matrix. […] Cell viability was measured via ATP content using CellTiter-Glo® (Promega).
# (§6) Viability was determined using CellTiter-Glo® (Promega).
# Cell viability was measured via ATP content using CellTiter-Glo® (Promega).
# (§7) Proliferation studies were performed using MOLM-13, MV4-11 and SKM-1 cell lines in vitro to evaluate the cancer cell killing effect of a combination of two agents together on cell growth. Initial proliferation studies were performed to determine the IC50 values of a given compound in each cell line. The cell counts were measured by ATP quantitation using the Promega Cell Titer Glo kit and luminescence values correspond to the amount of ATP in a given well.
# (§8) These studies were performed to evaluate both the combinatorial effect of compounds on cell killing and the durability of the effect by washing out one of the agents.
# (§9) Compounds evaluated for synergy in the co-treatment phase were tested in a range which was bracketed around the IC50's. The compounds were plated to a 96 well plate in a matrix format which includes increasing concentrations of each drug in the combination in a constant ratio, in addition to the effect of each compound alone in the study. Cells were seeded and grown in the log-linear phase for 3 or 7 days in the cotreatment phase. Maximum and minimum inhibition (DMSO alone) controls were used in each plate to calculate fraction affected (Fa) of a test well. DMSO concentration was kept at 0.1% v/v. The drug combination analysis was performed utilizing the Chou-Talalay method. Synergy was determined using the software package Calcusyn by Biosoft. The combination index (CI) is the term used to describe the level of synergy or antagonism in a given test system. A combination index less than one indicates synergy, and a CI greater than one indicates antagonism.
# The drug combination analysis was performed using the Chou-Talalay method. Graphs representing values of combination index (CI) versus Fractional effect (Fa) known as Fa-CI plots were generated and synergy was evaluated.
# MV4-11 (MLL-AF4) cells = test: as above; settings: for Combination effect with Compound A2 (Table 4): MV4-11 (MLL-AF4); for Combination effect with Compound A2 (Table 4) / Combination effect with Compound A2 (Table 5): 7 Day Cotreatment Model; for Combination effect with Compound A2 / Combination effect with Compound A2 (Table 5): MV4-11; for Combination effect with Compound A2: 7 Day Cotreatment (Example 1); for Combination effect with Compound A2 (Table 2): MV4-11 MLL-AF4
# Experimental: as §1, §2, §3, §4, §5, §6, §7, §8, §9
# The drug combination analysis was performed using the Chou-Talalay method. Graphs representing values of combination index (CI) versus Fractional effect (Fa) known as Fa-CI plots were generated and synergy was evaluated. Drug synergy was statistically defined by CI values less than 1, antagonism by CI>1 and additive effect by CI equal to 1.
# MOLM-13 cells = test: Example 6 combination screen: 300 nM EPZ-5676 pre-treatment, second compound 72 h, ATPLite, IC50 shift; settings: 300 nM EPZ-5676 pre-treatment (4 + 3 days) vs DMSO, then 2nd compound 72 h, IC50 shift of 2nd compound
# Experimental: (§10) Cells were then equilibrated in incubators for 24 hours before treatment with a second compound. Treated assay plates were incubated with a second compound for 72 hours. After this time, plates were developed for endpoint analysis using ATPLite to measure ATP content, which is used as an indicator of cell viability.
# (§11) “N/D” means that IC50 of the second compound could not be determined for both conditions.
# SKM-1 cells = test: as above; settings: SKM-1 cells; 300 nM EPZ-5676 pre-treatment (4 + 3 days) vs DMSO, then 2nd compound 72 h; ATPLite; IC50 shift of 2nd compound
# Experimental: as §10, §11
smiles,measurement,setting,value
N[C@@H]1C[C@H]1c1ccccc1 (racemic) [Tranylcypromine],Combination effect with Compound A2 (Table 4),MOLM-13 (MLL-AF9) cells,Strong Synergy
same,Combination effect with Compound A2,MOLM-13 (MLL-AF9) cells,synergy
same,Combination effect with Compound A2 (Table 4),MV4-11 (MLL-AF4) cells,Synergy (Drug synergy was statistically defined by CI values less than 1)
same,Combination effect with Compound A2,MV4-11 (MLL-AF4) cells,synergy
Clc1ccc(C2(c3ccc(-c4cn[nH]c4)cc3)CCNCC2)cc1 [AT7867],Summary of Combination Studies: MOLM-13,MOLM-13 cells,Synergy (considered synergistic if the IC50 value of the second compound decreased by 2-fold or more when EPZ-5676 was added as compared to the DMSO control)
CC(=O)OC[C@H]1O[C@@H]([S-])[C@H](OC(C)=O)[C@@H](OC(C)=O)[C@@H]1OC(C)=O.CCP(CC)CC.[Au+] [Auranofin],Summary of Combination Studies: MOLM-13,MOLM-13 cells,Synergy (considered synergistic if the IC50 value of the second compound decreased by 2-fold or more when EPZ-5676 was added as compared to the DMSO control)
Cc1cc(Cl)cc(OCCn2cc(F)cn2)c1-c1nc(N)nc2c1CN(C(=O)NCC(C)(F)F)C2 [BEP800],Summary of Combination Studies: MOLM-13,MOLM-13 cells,Synergy (considered synergistic if the IC50 value of the second compound decreased by 2-fold or more when EPZ-5676 was added as compared to the DMSO control)
O=C(/C=C/c1ccc(O)c(O)c1)OCCc1ccccc1 [CAPE],Summary of Combination Studies: MOLM-13,MOLM-13 cells,Synergy (considered synergistic if the IC50 value of the second compound decreased by 2-fold or more when EPZ-5676 was added as compared to the DMSO control)
same,Summary of Combination Studies: SKM-1,SKM-1 cells,Synergy (considered synergistic if the IC50 value of the second compound decreased by 2-fold or more when EPZ-5676 was added as compared to the DMSO control)
N.N.[Cl][Pt][Cl] [Cisplatin],Summary of Combination Studies: MOLM-13,MOLM-13 cells,Synergy (considered synergistic if the IC50 value of the second compound decreased by 2-fold or more when EPZ-5676 was added as compared to the DMSO control)
Nc1ncn([C@H]2C[C@H](O)[C@@H](CO)O2)c(=O)n1 [Decitabine],Combination effect with Compound A2 (Table 2),MOLM-13 (MLL-AF9) cells,Synergy (Drug synergy was statistically defined by CI values less than 1)
same,Combination effect with Compound A2 (Table 2),MV4-11 (MLL-AF4) cells,Synergy (Drug synergy was statistically defined by CI values less than 1)
c1ccc([C@@H]2C[C@H]2NC2CCNCC2)cc1 [GSK-LSD1],Summary of Combination Studies: MOLM-13,MOLM-13 cells,Synergy (considered synergistic if the IC50 value of the second compound decreased by 2-fold or more when EPZ-5676 was added as compared to the DMSO control)
COc1cc2c(cc1-c1c(C)noc1C)ncc1[nH]c(=O)n([C@H](C)c3ccccn3)c12 [IBET-151],Combination effect with Compound A2 (Table 2),MOLM-13 (MLL-AF9) cells,Synergy (Drug synergy was statistically defined by CI values less than 1)
same,Combination effect with Compound A2,MV4-11 (MLL-AF4) cells,Synergy (A combination index less than one indicates synergy)
same,Combination effect with Compound A2 (Table 2),MV4-11 (MLL-AF4) cells,Synergy (Drug synergy was statistically defined by CI values less than 1)
c1ccc2c(CCNc3ccc(Nc4ccncc4)cc3)c[nH]c2c1 [JNJ 26854165],Summary of Combination Studies: MOLM-13,MOLM-13 cells,Synergy (considered synergistic if the IC50 value of the second compound decreased by 2-fold or more when EPZ-5676 was added as compared to the DMSO control)
Cc1sc2c(c1C)C(c1ccc(Cl)cc1)=N[C@@H](CC(=O)OC(C)(C)C)c1nnc(C)n1-2 [JQ1],Combination effect with Compound A2 (Table 4),MOLM-13 (MLL-AF9) cells,Additive (additive effect by CI equal to 1)
same,Combination effect with Compound A2 (Table 2),MOLM-13 (MLL-AF9) cells,Additive (additive effect by CI equal to 1)
same,Combination effect with Compound A2 (Table 4),MV4-11 (MLL-AF4) cells,Additive (additive effect by CI equal to 1)
same,Combination effect with Compound A2 (Table 2),MV4-11 (MLL-AF4) cells,Additive (additive effect by CI equal to 1)
CC(=O)O/N=C1\C(=O)N(Cc2cc(Cl)ccc2Cl)c2ccc(Cl)cc21 [LDN 57444],Summary of Combination Studies: MOLM-13,MOLM-13 cells,Synergy (considered synergistic if the IC50 value of the second compound decreased by 2-fold or more when EPZ-5676 was added as compared to the DMSO control)
Nc1ccccc1NC(=O)c1ccc(CNC(=O)OCc2cccnc2)cc1 [MS-275],Summary of Combination Studies: MOLM-13,MOLM-13 cells,Synergy (considered synergistic if the IC50 value of the second compound decreased by 2-fold or more when EPZ-5676 was added as compared to the DMSO control)
CCCc1cc2c(N3CCN(C4=NCC(C)(C)S4)CC3)ncnc2s1 [Menin-MLL inhibitor MI-2],Combination effect with Compound A2 (Table 4),MOLM-13 (MLL-AF9) cells,Synergy (Drug synergy was statistically defined by CI values less than 1)
same,Combination effect with Compound A2 (Table 4),MV4-11 (MLL-AF4) cells,Synergy (Drug synergy was statistically defined by CI values less than 1)
O=C1c2c(O)ccc(O)c2C(=O)c2c(NCCNCCO)ccc(NCCNCCO)c21 [Mitoxantrone],Combination effect with Compound A2,MV4-11 (MLL-AF4) cells,Synergy (A combination index less than one indicates synergy)
O=c1cc(N2CCOCC2)oc2c(-c3cccc4c3sc3ccccc34)cccc12 [NU 7441],Summary of Combination Studies: MOLM-13,MOLM-13 cells,Synergy (considered synergistic if the IC50 value of the second compound decreased by 2-fold or more when EPZ-5676 was added as compared to the DMSO control)
CC1(C)CCC(c2ccc(Cl)cc2)=C(CN2CCN(c3ccc(C(=O)NS(=O)(=O)c4ccc(N[C@H](CCN5CCOCC5)CSc5ccccc5)c(S(=O)(=O)C(F)(F)F)c4)cc3)CC2)C1 [Navitoclax],Combination effect with Compound A2,MOLM-13 (MLL-AF9) cells,synergy
same,Combination effect with Compound A2,MV4-11 (MLL-AF4) cells,synergy
COc1ccc(C2=N[C@@H](c3ccc(Cl)cc3)[C@@H](c3ccc(Cl)cc3)N2C(=O)N2CCNC(=O)C2)c(OC(C)C)c1 [Nutlin-3],Summary of Combination Studies: MOLM-13,MOLM-13 cells,Synergy (considered synergistic if the IC50 value of the second compound decreased by 2-fold or more when EPZ-5676 was added as compared to the DMSO control)
CC(C)(C)c1cc(NC(=O)Nc2ccc(-c3cn4c(n3)sc3cc(OCCN5CCOCC5)ccc34)cc2)no1 [Quizartinib],Combination effect with Compound A2,MV4-11 (MLL-AF4) cells,synergy
Cc1cccc(-c2[nH]c(C(C)(C)C)nc2-c2ccc3c(c2)OCO3)n1 [SB-505124],Summary of Combination Studies: MOLM-13,MOLM-13 cells,Synergy (considered synergistic if the IC50 value of the second compound decreased by 2-fold or more when EPZ-5676 was added as compared to the DMSO control)
O=C1c2ccccc2-c2nc3nonc3nc21 [SMER 3],Summary of Combination Studies: MOLM-13,MOLM-13 cells,Synergy (considered synergistic if the IC50 value of the second compound decreased by 2-fold or more when EPZ-5676 was added as compared to the DMSO control)
Cn1cncc1[C@@](N)(c1ccc(Cl)cc1)c1ccc2c(c1)c(-c1cccc(Cl)c1)cc(=O)n2C [Tipifarnib],Combination effect with Compound A2 (Table 5),MV4-11 (MLL-AF4) cells,Synergy (Drug synergy was statistically defined by CI values less than 1)
CC[C@@H]1C(=O)N(C)c2cnc(Nc3ccc(C(=O)N[C@H]4CC[C@H](N5CCN(CC6CC6)CC5)CC4)cc3OC)nc2N1C(C)C [Volasertib],Combination effect with Compound A2 (Table 5),MV4-11 (MLL-AF4) cells,Antagonstic
